# Measured values reported in patent US10864225B2, “Treatment of metabolic disorders in equine animals” (Boehringer Ingelheim Vetmedica GmbH, priority 2013, dated 2020).
compound,measurement,setting,value
N#Cc1ccc([C@@H]2O[C@H](CO)[C@@H](O)[C@H](O)[C@H]2O)cc1Cc1ccc(C2CC2)cc1.O=C(O)[C@@H]1CCCN1,mechanical stability of the crystals,allows grinding of the crystals,high mechanical stability
same,physical and chemical stability,under various environmental conditions and during the production of a medicament,high physical and chemical stability
